Values joined by “and” are separate entries in the source; they are usually repeats but may differ in a detail not shown here. Identical values can stand only once.
Experiments:
[1] = system: EpiDerm tissue (normal, human-derived epidermal keratinocytes); assay: MTT tissue viability assay on EpiDerm tissue; format: cell-based; details: 48 hours of exposure, negative control = 100%
Description: The effect of the tested articles on cell viability was determined with an MTT assay. 10 μL and 25 μL portions of each of GS, SB, A, FS, DG and Mix were applied to separate duplicate samples of EpiDerm tissue (e.g., GS was applied to four tissue samples, with two samples receiving 10 μL and two samples receiving 25 μL of GS). 25 μL of the negative control was applied to each of three separate samples of EpiDerm tissue. EpiDerm tissue is an epidermal equivalent system from the MatTek Corporation of Ashland, Mass., consisting of normal, human-derived epidermal keratinocytes (NHEK) which have been cultured to form a multilayered, highly differentiated model of the human epidermis. After 48 hours of exposure to the test article or negative control each sample was rinsed with phosphate buffered saline (PBS) and the viability of the tissue (referenced to the negative control) was determined using the MTT tissue viability assay.
The MTT assay determines cell viability by measuring the amount of 3-(4,5-dimethylthiazol-2-yl)-2,5-diphenyltetrazolium bromide (MTT) dye taken up by the cell cultures. Viable cells take up this dye and convert it to insoluble formazin crystals that resides in the mitochondria of the cells until extracted with alcohol. […] MTT was measured spectrophotometrically and the optical density of each sample was determined. […]

[2] = system: MelanoDerm tissue (MEL-300-B); assay: Melanin assay on MelanoDerm tissue (MEL-300-B); format: cell-based, human; parameters: % melanin content relative to the Negative Control / % melanin content relative to the Positive Control: concentration or dose not given beside the values; details: for Melanin content of the two tested samples for each test article: 25 μL applied Days 0, 1, 3, 6, 8
Description: (§1) The effects of the test articles on skin color, melanin production, melanocyte morphology and dendricity and tissue morphology were assessed using MelanoDerm tissue (MEL-300-B). MelanoDerm tissue is another epidermal equivalent system from the MatTek Corporation of Ashland, Mass. This system consists of normal, human-derived epidermal keratinocytes (NHEK) and melanocytes (NHM) which have been cultured to form a multilayered, highly differentiated model of the human epidermis. The NHM within co-cultures undergo spontaneous melanogenesis leading to tissue pigmentation. The MEL-300-B system contains melanocytes derived from a donor.
On Day zero of the study, prior to exposure to any test articles, MelanoDerm tissue samples were placed into wells on plates containing maintenance medium that had been pre-warmed to about 37° C. (Long life maintenance medium, EPI-100-LLMM). The Melanoderm tissue samples were then incubated for about an hour in a humidified incubator maintained at a temperature of about 37° C. in an atmosphere of about 5% CO2. Following incubation, the maintenance medium was removed by aspiration. A cell culture stand was then placed in each well on the plate containing a MelanoDerm tissue sample. About 5 mL of fresh maintenance medium pre-warmed to about 37° C. was then added to each well having a MelanoDerm tissue sample. Then a cell culture insert was placed on top of each cell culture stand. 25 μL portions of each of GS, SB, A, FS, DG, Mix, negative control, and positive control were applied by pipette to six separate MelanoDerm tissue samples for each test article being tested (e.g., GS was applied to six tissue samples in six different wells). 25 μL portions of each of the test articles and controls were also applied to the same MelanoDerm tissue samples on Days, 1, 3, 6, and 8 of the study for each sample remaining (some samples were used for testing). Throughout the study, the maintenance medium was changed every two days to maintain the MelanoDerm tissue samples.
On each of Days 3, 7, 10, and 14, one tissue sample for each test article and control was fixed with formalin, photographed to document macroscopic darkening, microscopically observed to examine melanocyte morphology and dendricity, then processed for histology. On Days 10 and 14, two tissue samples for each test article and control were frozen and later assayed for melanin content.
To assay the tissues for melanin content, the frozen tissues were thawed and placed in Dulbecco's phosphate buffered saline (D-PBS) to remove excess phenol red from the maintenance medium. The tissues were removed from the D-PBS and each tissue was blotted dry and placed in a separate 1.7 ml microfuge tube. To each microfuge tube 250 μl of a tissue and gel solubilizer was added (Solvable™, 0.5 M—Packard BioScience Co. Catalogue No. 6NE9 100 (NEF910)). Dilutions for creating a standard curve were also prepared containing from 0-250 μg of melanin (Sigma cat. M 8631) in a total of 250 μl Solvable™. The tissues were incubated in their tubes overnight at about 60° C. overnight along with the dilutions. The tissue samples were then vortexed. Then the tissue samples were centrifuged at 13,000 rpm for 5 minutes to pellet. The supernatant from the tissue samples was collected. 250 μl of the supernatant from each tissue sample as well as the dilutions were then added to separate wells of a microwell plate. The plate was read at 490 nm. The optical densities of the dilutions were used to prepare a standard curve against which the optical densities of the tissue sample supernatants could be compared to determine the melanin content of the tissue samples. […]

[3] = system: MelanoDerm tissue (MEL-300-B); assay: Macroscopic skin lightening of fixed MelanoDerm tissue; format: cell-based, human; details: fixed tissues
Description: as §1
On Day zero of the study, prior to exposure to any test articles, MelanoDerm tissue samples were placed into wells on plates containing maintenance medium that had been pre-warmed to about 37° C. (Long life maintenance medium, EPI-100-LLMM). The Melanoderm tissue samples were then incubated for about an hour in a humidified incubator maintained at a temperature of about 37° C. in an atmosphere of about 5% CO2. Following incubation, the maintenance medium was removed by aspiration. A cell culture stand was then placed in each well on the plate containing a MelanoDerm tissue sample. About 5 mL of fresh maintenance medium pre-warmed to about 37° C. was then added to each well having a MelanoDerm tissue sample. […]

Row | Structure (SMILES) | % Viability of tissue sample exposed to test article ([1]; 10 mL (so in the source) applied) [%] | % Viability of tissue sample exposed to test article ([1]; 25 mL (so in the source) applied) [%] | % melanin content relative to the Negative Control ([2]; Day 10) [%] | % melanin content relative to the Positive Control ([2]; Day 10) [%] | Average melanin content ([2]; Day 10) [μg/tissue] | Melanin content of the two tested samples for each test article ([2]; Day 10) | % melanin content relative to the Negative Control ([2]; Day 14) [%] | % melanin content relative to the Positive Control ([2]; Day 14) [%] | Average melanin content ([2]; Day 14) [μg/tissue] | Melanin content of the two tested samples for each test article ([2]; Day 14) | macroscopic lightening compared with the negative control ([3]; Days 3, 7, 10, and 14) | melanin content compared with the negative control (in words) ([2]; Day 10 and Day 14) | macroscopic lightening compared with the negative control ([3]; Days 3, 7, and 10)
1 | CC1(C)[C@@H](O[C@H]2O[C@H](C(=O)[O-])[C@@H](O)[C@H](O)[C@H]2O[C@@H]2O[C@H](C(=O)[O-])[C@@H](O)[C@H](O)[C@H]2O)CC[C@]2(C)[C@H]3C(=O)C=C4[C@@H]5C[C@@](C)(C(=O)O)CC[C@]5(C)CC[C@@]4(C)[C@]3(C)CC[C@@H]12.[K+].[K+] [DG, dipotassium glycyrrhizate] | 94.62 | 94.46 | 100.6 | 109.5 | 24.8 | 27.3 μg/tissue and 22.3 μg/tissue | 85.8 | 118.7 | 31.8 | 26.0 μg/tissue and 37.6 μg/tissue | lightening effect |  | 
2 | O=c1cc(CO)occ1O [Positive Control, kojic acid] |  |  | 91.9 | 100.0 | 22.7 | 25.0 μg/tissue and 20.3 μg/tissue | 72.3 | 100.0 | 26.8 | 26.6 μg/tissue and 27.0 μg/tissue |  | lower melanin content than the negative control | lighter than the negative control

Source: patent publication US20080241084A1, “Compositions and methods for inhibiting melanogenesis” (Shaklee Corporation, priority 2007, published 2008)
